Data published in patent US5707989A, “Pyrimido[5,4-D]pyrimidines, medicaments comprising these compounds, their use and processes for their preparation” (Dr. Karl Thomae GmbH, priority 1994, dated 1998).

Experiments:
Type in all cases: cell-based
human EGF-R = target: T1, human EGF-R (Homo sapiens, UniProt P00533); assay: Inhibition of EGF-dependent proliferation of F/L-HERc cells; settings: human EGF 20 ng/ml, 48 hours
T1 construct: expressed in transfected cells; host or cells: F/L-HERc cells: murine IL-3-dependent line FDC-P1 infected with recombinant retrovirus (LXSN vector, GP+E86 packaging line) carrying human EGF-R cDNA
From the text: (§1) The inhibition of EGF-R-mediated signal transmission can be detected, for example, with cells which express human EGF-R, the survival and proliferation of which depend on stimulation by EGF or TGF-alpha. An interleukin-3 (IL-3)-dependent cell line of murine origin which was changed genetically such that it expresses functional human EGF-R was used here. The proliferation of these cells, called F/L-HERc, can therefore be stimulated either by murine IL-3 or by EGF (see von Ruden, T. et al. in EMBO J. 7, 2749-2756 (1988) and Pierce, J. H. et al. in Science 239, 628-631 (1988)).
(§2) The starting material used for the F/L-HERc cells was the cell line FDC-P1, the preparation of which has been described by Dexter, T. M. et al. in J. Exp. Med. 152, 1036-1047 (1980). Alternatively, however, other growth factor-dependent cells can also be used (see, for example, Pierce, J. H. et al. in Science 239, 628-631 (1988), Shibuya, H. et al. in Cell 70, 57-67 (1992) and Alexander, W. S. et al. in EMBO J. 10, 3683-3691 (1991)). Recombinant retroviruses were used for expression of the human EGF-R cDNA (see Ullrich, A. et al. in Nature 309, 418-425 (1984)), as described in yon Ruden, T. et al., EMBO J. 7, 2749-2756 (1988), with the difference that the retroviral vector LXSN (see Miller, A. D. et al. in BioTechniques 7, 980-990 (1989)) was used for expression of the EGF-R cDNA and the line GP+E86 (see Markowitz, D. et al. in J. Virol. 62, 1120-1124 (1988)) was used as the packing cell.
(§3) The test was carried out as follows:
(§4) F/L HERc cells were cultured at 37° C. and 5% CO2 in RPMI/1640 medium (BioWhittaker), supplemented with 10% foetal bovine serum (FCS, Boehringer Mannheim), 2 mM glutamine (BioWhittaker), standard antibiotics and 20 ng/ml of human EGF (Promega). For investigation of the inhibitory activity of the compounds according to the invention, 1.5×10^4 cells per well were cultured in triplicate in 96-well plates in the above medium (200 μl), proliferation of the cells being stimulated with either EGF (20 ng/ml) or murine IL-3. Culture stocks of the cell line X63/0 mIL-3 were used as the source for IL-3 (see Karasuyama, H. et al. in Eur. J. Immunol. 18, 97-104 (1988)). The compounds according to the invention were dissolved in 100% dimethyl sulphoxide (DMSO) and added to the cultures in various dilutions, the maximum DMSO concentration being 1%. The cultures were incubated at 37° C. for 48 hours.
(§5) To determine the inhibitory activity of the compounds according to the invention, the relative cell count was measured in OD units with Cell Titer 96™ Aqueous Non-Radioactive Cell Proliferation Assay (Promega). The relative cell count was calculated in per cent of the control (F/LHERc cells without inhibitor) and the active compound concentration which inhibits the proliferation of the cells to 50% (IC50) was deduced.

F/L-HERc cells = assay: Inhibition of IL-3-dependent proliferation of F/L-HERc cells; settings: Mus musculus, murine IL-3, 48 hours
From the text: as §1, §2, §3, §4, §5

[1] = tested on: human tumour cell line KB; assay: EGF/TGF-alpha-stimulated proliferation (thymidine incorporation) of KB cells; settings: TGF-alpha 10 ng/ml or EGF 20 ng/ml, 60 hours, then [3H]-thymidine 16-18 hours, read-out: IC50 for inhibition of the EGF/TGF-alpha-stimulated KB cell proliferation
Description: KB cells (obtained from ATCC) were passaged in DMEM (BioWhittaker) in the presence of 10% FCS (Boehringer Mannheim), 50 μM beta-mercaptoethanol and standard antibiotics. As an indicator of EGF/TGF-alpha-stimulated cell proliferation, the EGF-inducedDNA synthesis was determined by measurement of the incorporation of radioactively labelled thymidine. For this, the celels were washed twice and 1500 cells per well were plated out in a 96-well plate in 200 μl IMDM (BioWhittaker) without serum in the presence of 50 μM beta-mercaptoethanol, standard antibiotics, TGF-alpha [10 ng/ml] or EGF [20 ng/ml] and various concentrations of the substances according to the invention (triplicates, maximum DMSO concentration 1%, see proliferation test with F/L-HERc cells). After 60 hours, [^3 H]-thymidine (0.1 μCi in 10 μl) was added for about 16-18 hours. Subsequent measurement of the thymidine incorporation gave IC50 values of 0.1-1 μM for inhibition of the EGF/TGF-alpha-stimulated KB cell proliferation for compounds 2, 6, 17, 18, 19, 72, 83, 93, 95, 96 and 104 of Example 1.

T1 sequence (P00533 25-1210): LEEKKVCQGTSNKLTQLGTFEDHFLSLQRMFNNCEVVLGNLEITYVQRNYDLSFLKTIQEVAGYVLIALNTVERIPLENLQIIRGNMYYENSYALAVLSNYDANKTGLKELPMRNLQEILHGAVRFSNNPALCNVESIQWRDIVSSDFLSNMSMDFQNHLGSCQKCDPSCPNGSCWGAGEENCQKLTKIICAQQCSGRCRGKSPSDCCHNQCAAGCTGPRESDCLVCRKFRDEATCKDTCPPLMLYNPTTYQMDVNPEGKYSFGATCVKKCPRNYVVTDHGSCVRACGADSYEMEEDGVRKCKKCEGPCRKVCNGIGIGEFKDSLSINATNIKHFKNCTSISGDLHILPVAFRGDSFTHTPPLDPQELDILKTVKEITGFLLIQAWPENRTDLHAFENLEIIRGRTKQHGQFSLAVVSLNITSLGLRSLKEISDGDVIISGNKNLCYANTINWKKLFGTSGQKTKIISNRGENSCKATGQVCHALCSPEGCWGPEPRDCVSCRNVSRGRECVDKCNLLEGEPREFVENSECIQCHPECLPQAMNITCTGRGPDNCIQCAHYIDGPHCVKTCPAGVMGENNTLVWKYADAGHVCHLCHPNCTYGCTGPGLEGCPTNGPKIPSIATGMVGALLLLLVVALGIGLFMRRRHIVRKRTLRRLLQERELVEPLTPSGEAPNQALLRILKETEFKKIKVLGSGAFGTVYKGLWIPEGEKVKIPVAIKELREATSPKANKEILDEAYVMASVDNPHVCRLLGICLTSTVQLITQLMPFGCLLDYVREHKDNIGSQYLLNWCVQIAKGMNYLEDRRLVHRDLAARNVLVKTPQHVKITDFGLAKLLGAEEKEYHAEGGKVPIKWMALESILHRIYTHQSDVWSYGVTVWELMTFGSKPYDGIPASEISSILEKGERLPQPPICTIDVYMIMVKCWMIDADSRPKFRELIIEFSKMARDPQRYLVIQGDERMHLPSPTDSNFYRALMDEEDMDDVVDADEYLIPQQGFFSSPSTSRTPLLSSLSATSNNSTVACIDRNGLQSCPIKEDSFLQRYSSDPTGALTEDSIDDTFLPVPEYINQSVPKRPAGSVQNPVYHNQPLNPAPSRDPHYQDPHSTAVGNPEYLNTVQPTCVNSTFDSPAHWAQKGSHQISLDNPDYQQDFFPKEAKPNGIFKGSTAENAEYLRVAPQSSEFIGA

IC50 (human EGF-R) | IC50 [1] | Structure (SMILES) | IC50 (F/L-HERc cells)
2500 nM |  | Cc1cccc(Nc2ncnc3cnc(N4CCN(c5ccccc5)CC4)nc23)c1 [1(3), 4-[(3-Methylphenyl)amino]-6-(1-phenyl-4-piperazinyl)-pyrimido[5,4-d]pyrimidine] | > 10000 nM
1000 nM |  | COc1ncc2ncnc(Nc3cccc(C)c3)c2n1 [1(5), 4-[(3-Methylphenyl)amino]-6-methoxy-pyrimido[5,4-d]pyrimidine] | > 10000 nM
500 nM |  | CCN(CC)c1ncc2ncnc(Nc3cccc(C)c3)c2n1 [1(10), 4-[(3-Methylphenyl)amino]-6-(diethylamino)-pyrimido[5,4-d]pyrimidine] | > 10000 nM
300 nM |  | Cc1cccc(Nc2ncnc3cnc(N)nc23)c1 [1(13), 4-[(3-Methylphenyl)amino]-6-amino-pyrimido[5,4-d]pyrimidine] | > 10000 nM
25 nM |  | C#CCNc1ncc2ncnc(Nc3cccc(C)c3)c2n1 [1(23), 4-[(3-Methylphenyl)amino]-6-(propargylamino)-pyrimido[5,4-d]pyrimidine] | > 3000 nM
20 nM |  | Cc1cccc(Nc2ncnc3cnc(NC(C)CO)nc23)c1 (stereo not drawn) [1(58), 4-[(3-Methylphenyl)amino]-6-(1-hydroxy-2-propylamino)pyrimido[5,4-d]pyrimidine] | > 3000 nM
32 nM |  | Cc1cccc(Nc2ncnc3cnc(N4CCC(N)CC4)nc23)c1 [1(61), 4-[(3-Methylphenyl)amino]-6-(4-amino-1-piperidinyl)-pyrimido[5,4-d]pyrimidine] | 9000 nM
40 nM |  | Cc1cccc(Nc2ncnc3cnc(NC4CCN(C)CC4)nc23)c1 [1(62), 4-[(3-Methylphenyl)amino]-6-[(1-methyl-4-piperidinyl)amino]-pyrimido[5,4-d]pyrimidine] | > 1000 nM
50 nM |  | Cc1cccc(Nc2ncnc3cnc(N[C@H]4CC[C@H](NC(=O)OC(C)(C)C)CC4)nc23)c1 [1(108), 4-[(3-Methylphenyl)amino]-6-[(trans-4-tert-butyloxycarbonylamino-cyclohexyl)amino]pyrimido[5,4-d]pyrimidine] | > 10000 nM
15 nM |  | Cc1cccc(Nc2ncnc3cnc(NC4CCC(=O)CC4)nc23)c1 [1(109), 4-[(3-Methylphenyl)amino]-6-[(4-oxo-cyclohexyl)amino]pyrimido[5,4-d]pyrimidine] | 10000 nM
2 nM |  | O[C@H]1CC[C@H](Nc2ncc3ncnc(Nc4cccc(Cl)c4)c3n2)CC1 [1(110), 4-[(3-Chlorophenyl)amino]-6-[(trans-4-hydroxycyclohexyl)amino]pyrimido[5,4-d]pyrimidine] | > 10000 nM
8 nM |  | Fc1ccc(Nc2ncnc3cnc(NCCN4CCOCC4)nc23)cc1Cl [1(129), 4-[(3-Chloro-4-fluoro-phenyl)amino]-6-[2-(morpholino)-ethylamino]-pyrimido[5,4-d]pyrimidine] | > 20000 nM
13 nM |  | Cc1cccc(Nc2ncnc3cnc(N[C@H]4CC[C@H](C(=O)O)CC4)nc23)c1 [1(134), 4-[(3-Methylphenyl)amino]-6-[trans-4-carboxy-cyclohexylamino]-pyrimido[5,4-d]pyrimidine] | > 10000 nM
5 nM |  | Cc1cccc(Nc2ncnc3cnc(N[C@H]4CC[C@H](C(=O)N5CCOCC5)CC4)nc23)c1 [1(140), 4-[(3-Methylphenyl)amino]-6-[trans-4-(morpholinocarbonyl)cyclohexylamino]-pyrimido[5,4-d]pyrimidine] | > 10000 nM
15 nM |  | Cc1cccc(Nc2ncnc3cnc(NC4CCOCC4)nc23)c1 [1(170), 4-[(3-Methylphenyl)amino]-6-(4-tetrahydropyranylamino)-pyrimido[5,4-d]pyrimidine] | > 10000 nM
5 nM |  | CC(CO)(CO)Nc1ncc2ncnc(Nc3ccc(Cl)c(F)c3)c2n1 [1(183), 4-[(4-Chloro-3-fluoro-phenyl)amino]-6-(1,3-dihydroxy-2-methyl-2-propylamino)-pyrimido[5,4-d]pyrimidine] | > 20000 nM
4 nM |  | Cc1cccc(Nc2ncnc3cnc(Nc4ccc(N5CCCC5CO)cc4)nc23)c1 (stereo not drawn) [1(193), 4-[(3-Methylphenyl)amino]-6-[4-(2-hydroxymethyl-1-pyrrolidinyl)phenylamino]-pyrimido[5,4-d]pyrimidine] | 10000 nM
900 nM |  | Cc1cccc(Nc2ncnc3cnc(NCC4COCCOCCOCCOCCO4)nc23)c1 (stereo not drawn) [1(197)] | 10000 nM
32 nM |  | N#Cc1cc(Nc2ncnc3cnc(N[C@H]4CC[C@H](O)CC4)nc23)ccc1N [1(201), 4-[(4-Amino-3-cyano-phenyl)amino]-6-[(trans-4-hydroxycyclohexyl)-amino]-pyrimido[5,4-d]pyrimidine] | > 10000 nM
0.8 nM |  | O[C@H]1CC[C@H](Nc2ncc3ncnc(Nc4ccc(F)c(Cl)c4)c3n2)CC1 [1(204), 4-[(3-Chloro-4-fluoro-phenyl)amino]-6-[(trans-4-hydroxycyclohexyl)-amino]-pyrimido[5,4-d]pyrimidine] | > 10000 nM
2 nM |  | Nc1c(Cl)cc(Nc2ncnc3cnc(N[C@H]4CC[C@H](O)CC4)nc23)cc1Cl [1(207), 4-[(4-Amino-3,5-dichloro-phenyl)amino]-6-[(trans-4-hydroxycyclohexyl)-amino]-pyrimido[5,4-d]pyrimidine] | > 10000 nM
50 nM |  | Fc1cc(F)cc(Nc2ncnc3cnc(NC4CC4)nc23)c1 [3(5), 4-[(3,5-Difluorophenyl)amino]-6-(cyclopropylamino)-pyrimido[5,4-d]pyrimidine] | > 3000 nM
50 nM |  | FC(F)(F)Oc1cccc(Nc2ncnc3cnc(NC4CC4)nc23)c1 [3(18), 4-[(3-Trifluoromethoxyphenyl)amino]-6-(cyclopropylamino)-pyrimido[5,4-d]pyrimidine] | > 3000 nM
15 nM |  | N#Cc1cccc(Nc2ncnc3cnc(NC4CC4)nc23)c1 [3(19), 4-[(3-Cyanophenyl)amino]-6-(cyclopropylamino)-pyrimido[5,4-d]pyrimidine] | > 3000 nM
20 nM |  | O=[N+]([O-])c1cccc(Nc2ncnc3cnc(NC4CC4)nc23)c1 [3(45), 4-[(3-Nitrophenyl)amino]-6-(cyclopropylamino)-pyrimido[5,4-d]pyrimidine] | > 1000 nM
2000 nM |  | Brc1cccc(Nc2ncnc3cncnc23)c1 [4(1), 4-[(3-Bromophenyl)amino]-pyrimido[5,4-d]pyrimidine] | > 10000 nM
 | 100 to 1000 nM | Cc1cccc(Nc2ncnc3cnc(NC(C)C)nc23)c1 [Example 1(2), 4-[(3-Methylphenyl)amino]-6-(isopropylamino)-pyrimido[5,4-d]pyrimidine] | 
 | 100 to 1000 nM | Cc1cccc(Nc2ncnc3cnc(N4CCCC4)nc23)c1 [Example 1(18), 4-[(3-Methylphenyl)amino]-6-(1-pyrrolidinyl)-pyrimido[5,4-d]pyrimidine] | 
